According to the NIST ThermoML archive (doi:10.1021/je800636k):
± gives the expanded uncertainty stated by the source.

Key:
[1] = 101 kPa, Liquid; for electrical conductivity: Qcond 2400 VWR international / cell constant, 1.05; for viscosity: Concentric cylinders viscometry; for mass density: Vibrating tube method
[2] = xn = mol fraction of the nth substance listed; settings: 101 kPa, Liquid, x2 = 0; for electrical conductivity: Qcond 2400 VWR international / cell constant, 1.05; for viscosity: Concentric cylinders viscometry; for mass density: Vibrating tube method

## CCCCn1cc[n+](C)c1C.[N-]=[N+]=[N-] [1-butyl-2,3-dimethylimidazolium azide]
[1]; 303.15 K
  electrical conductivity: 0.0488 ± 0.0019 S/m
[1]; 308.15 K
  electrical conductivity: 0.0756 ± 0.003 S/m
[1]; 313.15 K
  viscosity: 338.19 ± 10 mPa·s
  electrical conductivity: 0.112 ± 0.0045 S/m
  mass density: 1070.46 ± 2.2 kg/m3
[1]; 318.15 K
  electrical conductivity: 0.159 ± 0.0064 S/m
[1]; 323.15 K
  viscosity: 176.04 ± 4.2 mPa·s
  electrical conductivity: 0.219 ± 0.0088 S/m
  mass density: 1065.14 ± 2.2 kg/m3
[1]; 328.15 K
  electrical conductivity: 0.294 ± 0.012 S/m
[1]; 333.15 K
  viscosity: 101.63 ± 2 mPa·s
  electrical conductivity: 0.383 ± 0.015 S/m
  mass density: 1059.83 ± 2.2 kg/m3
[1]; 338.15 K
  electrical conductivity: 0.49 ± 0.02 S/m
[1]; 343.15 K
  viscosity: 63.6 ± 1.1 mPa·s
  electrical conductivity: 0.614 ± 0.025 S/m
  mass density: 1054.52 ± 2.2 kg/m3
[1]; 348.15 K
  electrical conductivity: 0.756 ± 0.03 S/m
[1]; 353.15 K
  viscosity: 42.44 ± 0.73 mPa·s
  electrical conductivity: 0.918 ± 0.037 S/m
  mass density: 1049.21 ± 2.1 kg/m3
[1]; 358.15 K
  electrical conductivity: 1.1 ± 0.044 S/m
[1]; 363.15 K
  viscosity: 29.82 ± 0.51 mPa·s
  electrical conductivity: 1.3 ± 0.052 S/m
  mass density: 1043.9 ± 2.1 kg/m3
[1]; 368.15 K
  electrical conductivity: 1.52 ± 0.061 S/m
[1]; 373.15 K
  viscosity: 21.87 ± 0.38 mPa·s
  mass density: 1038.59 ± 2.1 kg/m3

## CCCCn1cc[n+](C)c1C.F[B-](F)(F)F [1-butyl-2,3-dimethylimidazolium tetrafluoroborate]
[1]; 303.15 K
  electrical conductivity: 0.0758 ± 0.003 S/m
[1]; 308.15 K
  electrical conductivity: 0.106 ± 0.0042 S/m
[1]; 313.15 K
  viscosity: 364.17 ± 11 mPa·s
  electrical conductivity: 0.145 ± 0.0058 S/m
  mass density: 1182.05 ± 2.7 kg/m3
[1]; 318.15 K
  electrical conductivity: 0.194 ± 0.0077 S/m
[1]; 323.15 K
  viscosity: 204.79 ± 5.1 mPa·s
  electrical conductivity: 0.254 ± 0.01 S/m
  mass density: 1175.57 ± 2.7 kg/m3
[1]; 328.15 K
  electrical conductivity: 0.327 ± 0.013 S/m
[1]; 333.15 K
  viscosity: 124.34 ± 2.6 mPa·s
  electrical conductivity: 0.415 ± 0.017 S/m
  mass density: 1169.08 ± 2.6 kg/m3
[1]; 338.15 K
  electrical conductivity: 0.518 ± 0.021 S/m
[1]; 343.15 K
  viscosity: 80.35 ± 1.4 mPa·s
  electrical conductivity: 0.639 ± 0.026 S/m
  mass density: 1162.6 ± 2.6 kg/m3
[1]; 348.15 K
  electrical conductivity: 0.779 ± 0.031 S/m
[1]; 353.15 K
  viscosity: 54.65 ± 0.93 mPa·s
  electrical conductivity: 0.939 ± 0.038 S/m
  mass density: 1156.12 ± 2.6 kg/m3
[1]; 358.15 K
  electrical conductivity: 1.12 ± 0.045 S/m
[1]; 363.15 K
  viscosity: 38.8 ± 0.67 mPa·s
  electrical conductivity: 1.32 ± 0.053 S/m
  mass density: 1149.64 ± 2.5 kg/m3
[1]; 368.15 K
  electrical conductivity: 1.55 ± 0.062 S/m
[1]; 373.15 K
  viscosity: 28.56 ± 0.49 mPa·s
  mass density: 1143.15 ± 2.5 kg/m3

## CCCCn1cc[n+](C)c1C.F[B-](F)(F)F [1-butyl-2,3-dimethylimidazolium tetrafluoroborate] + CCCCn1cc[n+](C)c1C.[N-]=[N+]=[N-]
[2]; 303.15 K
  electrical conductivity: 0.0758 ± 0.003 S/m
[2]; 308.15 K
  electrical conductivity: 0.106 ± 0.0042 S/m
[2]; 313.15 K
  viscosity: 364.17 ± 11 mPa·s
  electrical conductivity: 0.145 ± 0.0058 S/m
  mass density: 1182.05 ± 2.7 kg/m3
[2]; 318.15 K
  electrical conductivity: 0.194 ± 0.0077 S/m
[2]; 323.15 K
  viscosity: 204.79 ± 5.1 mPa·s
  electrical conductivity: 0.254 ± 0.01 S/m
  mass density: 1175.57 ± 2.7 kg/m3
[2]; 328.15 K
  electrical conductivity: 0.327 ± 0.013 S/m
[2]; 333.15 K
  viscosity: 124.34 ± 2.6 mPa·s
  electrical conductivity: 0.415 ± 0.017 S/m
  mass density: 1169.08 ± 2.6 kg/m3
[2]; 338.15 K
  electrical conductivity: 0.518 ± 0.021 S/m
[2]; 343.15 K
  viscosity: 80.35 ± 1.4 mPa·s
  electrical conductivity: 0.639 ± 0.026 S/m
  mass density: 1162.6 ± 2.6 kg/m3
[2]; 348.15 K
  electrical conductivity: 0.779 ± 0.031 S/m
[2]; 353.15 K
  viscosity: 54.65 ± 0.93 mPa·s
  electrical conductivity: 0.939 ± 0.038 S/m
  mass density: 1156.12 ± 2.6 kg/m3
[2]; 358.15 K
  electrical conductivity: 1.12 ± 0.045 S/m
[2]; 363.15 K
  viscosity: 38.8 ± 0.67 mPa·s
  electrical conductivity: 1.32 ± 0.053 S/m
  mass density: 1149.64 ± 2.5 kg/m3
[2]; 368.15 K
  electrical conductivity: 1.55 ± 0.062 S/m
[2]; 373.15 K
  viscosity: 28.56 ± 0.49 mPa·s
  mass density: 1143.15 ± 2.5 kg/m3
